Three compounds from ChEMBL document CHEMBL1944563, “Separation of Betti Reaction Product Enantiomers: Absolute Configuration and Inhibition of Botulinum Neurotoxin A” (ACS Med Chem Lett, 2011) can be followed below.

Experiment [1] has as its target Botulinum neurotoxin type A (Clostridium botulinum (strain Hall / ATCC 3502 / NCTC 13319 / Type A)) (UniProt P0DPI1). Briefly: Inhibition of Clostridium botulinum Hall BoNT/A light chain using SNAP-25 (187 to 203) as substrate at 20 uM by HPLC analysis. To be noted: Clostridium botulinum A str. Hall.
For experiment [2] the target is unchanged. Briefly: Inhibition of Clostridium botulinum Hall BoNT/A light chain using SNAP-25 (187 to 203) as substrate at 5 uM by HPLC analysis. To be noted: Clostridium botulinum A str. Hall.
The target of experiment [3] is Botulinum neurotoxin type A (Clostridium botulinum (strain Hall / ATCC 3502 / NCTC 13319 / Type A), UniProt P0DPI1). Briefly: Inhibition of Clostridium botulinum Hall BoNT/A light chain using SNAP-25 (187 to 203) as substrate by HPLC analysis. Also on record: species or system Clostridium botulinum A str. Hall.
Chain of Botulinum neurotoxin type A (P0DPI1 2-448 limits assumed): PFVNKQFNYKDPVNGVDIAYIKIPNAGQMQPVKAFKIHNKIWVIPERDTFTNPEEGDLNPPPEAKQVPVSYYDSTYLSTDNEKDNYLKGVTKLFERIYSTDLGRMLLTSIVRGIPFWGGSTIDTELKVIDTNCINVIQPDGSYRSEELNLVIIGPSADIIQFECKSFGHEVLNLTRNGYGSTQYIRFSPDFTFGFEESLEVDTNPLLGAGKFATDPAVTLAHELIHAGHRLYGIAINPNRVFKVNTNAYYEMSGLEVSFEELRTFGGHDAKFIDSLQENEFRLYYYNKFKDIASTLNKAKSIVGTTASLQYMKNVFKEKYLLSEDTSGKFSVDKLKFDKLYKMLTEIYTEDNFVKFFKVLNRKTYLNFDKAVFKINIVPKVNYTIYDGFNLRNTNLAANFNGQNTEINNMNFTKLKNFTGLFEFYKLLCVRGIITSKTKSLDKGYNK
Experiment [4] deals with Botulinum neurotoxin type A (Clostridium botulinum (strain Hall / ATCC 3502 / NCTC 13319 / Type A)) (UniProt P0DPI1). Briefly: Inhibition of Clostridium botulinum Hall BoNT/A-induced toxicity in mouse Neuro2a cells assessed as inhibition of SNAP25 substrate cleavage at 60 uM by Western blotting. To be noted: Clostridium botulinum A str. Hall. The class given is cell-based. A general note: In western blotting, separated proteins are transferred to a membrane and probed.
Chain of Botulinum neurotoxin type A (Clostridium botulinum (strain Hall / ATCC 3502 / NCTC 13319 / Type A)) (P0DPI1 2-448 limits assumed): as above

For experiment [5] the target is unchanged. Briefly: Inhibition of Clostridium botulinum Hall BoNT/A-induced toxicity in mouse Neuro2a cells assessed as inhibition of SNAP25 substrate cleavage at 45 uM by Western blotting. Type of experiment: cell-based. To be noted: Clostridium botulinum A str. Hall.
For experiment [6] the target is unchanged. Briefly: Inhibition of Clostridium botulinum Hall BoNT/A-induced toxicity in mouse Neuro2a cells assessed as inhibition of SNAP25 substrate cleavage at 30 uM by Western blotting. Type of experiment: cell-based. To be noted: Clostridium botulinum A str. Hall.
Experiment [7] has the same target. Briefly: Inhibition of Clostridium botulinum Hall BoNT/A-induced toxicity in mouse Neuro2a cells assessed as inhibition of SNAP25 substrate cleavage at 15 uM by Western blotting. The class given is cell-based. To be noted: Clostridium botulinum A str. Hall.
For experiment [8] the target is unchanged. Briefly: Inhibition of Clostridium botulinum Hall BoNT/A-induced paralysis in mouse phrenic nerve hemidiaphragm assessed as time required for loss of 50% twitch tension at 2 uM. To be noted: Clostridium botulinum A str. Hall.
Experiment [9] shares this target. Briefly: Inhibition of Clostridium botulinum Hall BoNT/A-induced paralysis in mouse phrenic nerve hemidiaphragm assessed as delay in paralytic half-time at 2 uM relative to control. To be noted: Clostridium botulinum A str. Hall.

For the compound `Oc1c([C@@H](Nc2ccccn2)c2ccccc2)cc(Cl)c2cccnc12`, the inhibition (as a rule, the relative decrease from the control value, in per cent) in [1] was 91%; in experiment [2], 90%; in [4], 96%; in [5], 93%; in [6], 69%; in experiment [7], 54%. Moreover, half-maximal inhibition in experiment [3] (IC50) was put at 1 µM. The TIME in [8] was 3.13 h. In experiment [9], the fold change (FC) came to 3.
In the case of `Oc1c(C(Nc2ccccn2)c2ccccc2)cc(Cl)c2cccnc12` (racemic), the inhibition was determined as 92% in experiment [1]; 88% in experiment [2]; 91% in experiment [4]; 90% in experiment [5]; 74% in experiment [6]; 41% in experiment [7]. For the same compound, in [3], the half-inhibitory concentration (IC50) – broadly, the point on the concentration scale where inhibition reaches its midpoint – is 1.5 µM.
Regarding `Oc1c([C@H](Nc2ccccn2)c2ccccc2)cc(Cl)c2cccnc12`, the inhibition in experiment [1] was 94%; in experiment [2], 90%; in experiment [4] it was 96%; in [5] it was 94%; in experiment [6] it was 89%; in experiment [7], 56%. Besides, the IC50 in [3] came out at 1.1 µM. Besides, the TIME in [8] was 3.18 h. The fold change (FC) in [9] was determined as 3.
